Activity calls are given as the source filed them. The calls are words filed in the database; no cut-off is given here.
Legend:
Mus musculus [1] = assay: Anticonvulsant activity in Carworth farms No.1 albino mouse assessed as protection against maximum electroshock at 30 mg/kg, ip measured after 0.5 hrs; format: functional, organism-based; parameters: dose 30 mg/kg
Mus musculus [2] = assay: Anticonvulsant activity in Carworth farms No.1 albino mouse assessed as protection against maximum electroshock at 100 mg/kg, ip measured after 0.5 hrs; format: functional, organism-based; parameters: dose 100 mg/kg
Mus musculus [3] = assay: Anticonvulsant activity in Carworth farms No.1 albino mouse assessed as protection against maximum electroshock at 300 mg/kg, ip measured after 0.5 hrs; format: functional, organism-based; parameters: dose 300 mg/kg
Mus musculus [4] = assay: Anticonvulsant activity in Carworth farms No.1 albino mouse assessed as protection against maximum electroshock at 30 mg/kg, ip measured after 4 hrs; format: functional, organism-based; parameters: dose 30 mg/kg
Mus musculus [5] = assay: Anticonvulsant activity in Carworth farms No.1 albino mouse assessed as protection against maximum electroshock at 100 mg/kg, ip measured after 4 hrs; format: functional, organism-based; parameters: dose 100 mg/kg
Mus musculus [6] = assay: Anticonvulsant activity in Carworth farms No.1 albino mouse assessed as protection against maximum electroshock at 300 mg/kg, ip measured after 4 hrs; format: functional, organism-based; parameters: dose 300 mg/kg
Mus musculus [7] = assay: Anticonvulsant activity in Carworth farms No.1 albino mouse assessed as protection against subcutaneous metrazole-induced seizures at 30 mg/kg, ip measured after 0.5 hrs; format: functional, organism-based; parameters: dose 30 mg/kg
Mus musculus [8] = assay: Anticonvulsant activity in Carworth farms No.1 albino mouse assessed as protection against subcutaneous metrazole-induced seizures at 100 mg/kg, ip measured after 0.5 hrs; format: functional, organism-based; parameters: dose 100 mg/kg
Mus musculus [9] = assay: Anticonvulsant activity in Carworth farms No.1 albino mouse assessed as protection against subcutaneous metrazole-induced seizures at 300 mg/kg, ip measured after 0.5 hrs; format: functional, organism-based; parameters: dose 300 mg/kg
Mus musculus [10] = assay: Anticonvulsant activity in Carworth farms No.1 albino mouse assessed as protection against subcutaneous metrazole-induced seizures at 30 mg/kg, ip measured after 4 hrs; format: functional, organism-based; parameters: dose 30 mg/kg
Mus musculus [11] = assay: Anticonvulsant activity in Carworth farms No.1 albino mouse assessed as protection against subcutaneous metrazole-induced seizures at 100 mg/kg, ip measured after 4 hrs; format: functional, organism-based; parameters: dose 100 mg/kg
Mus musculus [12] = assay: Anticonvulsant activity in Carworth farms No.1 albino mouse assessed as protection against subcutaneous metrazole-induced seizures at 300 mg/kg, ip measured after 4 hrs; format: functional, organism-based; parameters: dose 300 mg/kg
Mus musculus [13] = assay: Neurotoxicity in Carworth farms No.1 albino mouse assessed as neurological impairment at 30 mg/kg, ip measured after 0.5 hrs; format: toxicity, organism-based; parameters: dose 30 mg/kg, route intraperitoneal; details: in vivo
Mus musculus [14] = assay: Neurotoxicity in Carworth farms No.1 albino mouse assessed as neurological impairment at 100 mg/kg, ip measured after 0.5 hrs; format: toxicity, organism-based; parameters: dose 100 mg/kg, route intraperitoneal; details: in vivo
Mus musculus [15] = assay: Neurotoxicity in Carworth farms No.1 albino mouse assessed as neurological impairment at 300 mg/kg, ip measured after 0.5 hrs; format: toxicity, organism-based; parameters: dose 300 mg/kg, route intraperitoneal; details: in vivo
Mus musculus [16] = assay: Neurotoxicity in Carworth farms No.1 albino mouse assessed as neurological impairment at 30 mg/kg, ip measured after 4 hrs; format: toxicity, organism-based; parameters: dose 30 mg/kg, route intraperitoneal; details: in vivo
Mus musculus [17] = assay: Neurotoxicity in Carworth farms No.1 albino mouse assessed as neurological impairment at 100 mg/kg, ip measured after 4 hrs; format: toxicity, organism-based; parameters: dose 100 mg/kg, route intraperitoneal; details: in vivo
Mus musculus [18] = assay: Neurotoxicity in Carworth farms No.1 albino mouse assessed as neurological impairment at 300 mg/kg, ip measured after 4 hrs; format: toxicity, organism-based; parameters: dose 300 mg/kg, route intraperitoneal; details: in vivo
Rattus norvegicus [19] = assay: Anticonvulsant activity in Sprague-Dawley rat assessed as protection against maximum electroshock at 30 mg/kg, po measured after 0.25 hrs; format: functional, organism-based; parameters: dose 30 mg/kg
Rattus norvegicus [20] = assay: Anticonvulsant activity in Sprague-Dawley rat assessed as protection against maximum electroshock at 30 mg/kg, po measured after 0.5 hrs; format: functional, organism-based; parameters: dose 30 mg/kg
Rattus norvegicus [21] = assay: Anticonvulsant activity in Sprague-Dawley rat assessed as protection against maximum electroshock at 30 mg/kg, po measured after 1 hr; format: functional, organism-based; parameters: dose 30 mg/kg
Rattus norvegicus [22] = assay: Anticonvulsant activity in Sprague-Dawley rat assessed as protection against maximum electroshock at 30 mg/kg, po measured after 2 hrs; format: functional, organism-based; parameters: dose 30 mg/kg
Rattus norvegicus [23] = assay: Anticonvulsant activity in Sprague-Dawley rat assessed as protection against maximum electroshock at 30 mg/kg, po measured after 4 hrs; format: functional, organism-based; parameters: dose 30 mg/kg
Rattus norvegicus [24] = assay: Neurotoxicity in Sprague-Dawley rat assessed as neurological impairment at 30 mg/kg, po measured after 0.25 hrs; format: toxicity, organism-based; parameters: dose 30 mg/kg, route oral; details: in vivo
Rattus norvegicus [25] = assay: Neurotoxicity in Sprague-Dawley rat assessed as neurological impairment at 30 mg/kg, po measured after 0.5 hrs; format: toxicity, organism-based; parameters: dose 30 mg/kg, route oral; details: in vivo
Rattus norvegicus [26] = assay: Neurotoxicity in Sprague-Dawley rat assessed as neurological impairment at 30 mg/kg, po measured after 1 hr; format: toxicity, organism-based; parameters: dose 30 mg/kg, route oral; details: in vivo
Rattus norvegicus [27] = assay: Neurotoxicity in Sprague-Dawley rat assessed as neurological impairment at 30 mg/kg, po measured after 2 hrs; format: toxicity, organism-based; parameters: dose 30 mg/kg, route oral; details: in vivo
Rattus norvegicus [28] = assay: Neurotoxicity in Sprague-Dawley rat assessed as neurological impairment at 30 mg/kg, po measured after 4 hrs; format: toxicity, organism-based; parameters: dose 30 mg/kg, route oral; details: in vivo
Mus musculus [29] = assay: Anticonvulsant activity in Carworth farms No.1 albino mouse assessed as protection against 6 Hz electric current-induced seizure at 100 mg/kg, ip measured after 0.25 hrs; format: functional, organism-based; parameters: dose 100 mg/kg
Mus musculus [30] = assay: Anticonvulsant activity in Carworth farms No.1 albino mouse assessed as protection against 6 Hz electric current-induced seizure at 100 mg/kg, ip measured after 0.5 hrs; format: functional, organism-based; parameters: dose 100 mg/kg
Mus musculus [31] = assay: Anticonvulsant activity in Carworth farms No.1 albino mouse assessed as protection against 6 Hz electric current-induced seizure at 100 mg/kg, ip measured after 1 hrs; format: functional, organism-based; parameters: dose 100 mg/kg
Mus musculus [32] = assay: Anticonvulsant activity in Carworth farms No.1 albino mouse assessed as protection against 6 Hz electric current-induced seizure at 100 mg/kg, ip measured after 2 hrs; format: functional, organism-based; parameters: dose 100 mg/kg
Mus musculus [33] = assay: Anticonvulsant activity in Carworth farms No.1 albino mouse assessed as protection against 6 Hz electric current-induced seizure at 100 mg/kg, ip measured after 4 hrs; format: functional, organism-based; parameters: dose 100 mg/kg
Mus musculus [34] = assay: Neurotoxicity in Carworth farms No.1 albino mouse assessed as neurological impairment at 100 mg/kg, ip measured after 0.25 hrs; format: toxicity, organism-based; parameters: dose 100 mg/kg, route intraperitoneal; details: in vivo
Mus musculus [35] = assay: Neurotoxicity in Carworth farms No.1 albino mouse assessed as neurological impairment at 100 mg/kg, ip measured after 1 hr; format: toxicity, organism-based; parameters: dose 100 mg/kg, route intraperitoneal; details: in vivo
Mus musculus [36] = assay: Neurotoxicity in Carworth farms No.1 albino mouse assessed as neurological impairment at 100 mg/kg, ip measured after 2 hr; format: toxicity, organism-based; parameters: dose 100 mg/kg, route intraperitoneal; details: in vivo
Mus musculus [37] = assay: Anticonvulsant activity in ip dosed Carworth farms No.1 albino mouse assessed as protection against 6 Hz electric current-induced seizure measured after 0.25 hrs; format: functional
Rattus norvegicus [38] = assay: Anticonvulsant activity in Sprague-Dawley rat assessed as protection against pilocarpine-induced status at 900 mg/kg, ip measured after 0.5 hrs; format: functional, organism-based; parameters: dose 900 mg/kg
Rattus norvegicus [39] = assay: Neurotoxicity in Sprague-Dawley rat assessed as sedation at 900 mg/kg, ip measured after 0.5 hrs; format: toxicity, organism-based; parameters: dose 900 mg/kg, route intraperitoneal; details: in vivo
Rattus norvegicus [40] = assay: Toxicity in Sprague-Dawley rat assessed as mortality at 900 mg/kg, ip measured after 0.5 hrs; format: organism-based; parameters: dose 900 mg/kg, route intraperitoneal; details: in vivo
Rattus norvegicus [41] = assay: Toxicity in Sprague-Dawley rat assessed as body weight change in unprotected animals at 900 mg/kg, ip measured after 0.5 hrs; format: organism-based; parameters: dose 900 mg/kg, route intraperitoneal; details: in vivo
Rattus norvegicus [42] = assay: Toxicity in Sprague-Dawley rat assessed as body weight change in protected animals at 900 mg/kg, ip measured after 0.5 hrs; format: organism-based; parameters: dose 900 mg/kg, route intraperitoneal; details: in vivo
Mus musculus [43] = species: Mus musculus; assay: Anticonvulsant activity in electric shock-induced Carworth farms No.1 albino mouse assessed as time of peak effect; format: functional

In the case of `O=C1NC(=O)[C@@H](c2ccccc2)N2CCCC[C@H]12`, the Activity (Mus musculus [1]) is reported as “inactive”, the Activity (Mus musculus [2]) is reported as “inactive” and the Activity (Mus musculus [3]) is reported as “inactive”. For the same molecule, the Activity (Mus musculus [4]) was “inactive”, the Activity (Mus musculus [5]) was “inactive” and the Activity (Mus musculus [6]) was “inactive”. For the same molecule, the Activity (Mus musculus [7]) was “inactive”, the Activity (Mus musculus [8]) was “inactive” and the Activity (Mus musculus [9]) was “inactive”. For the same molecule, the Activity (Mus musculus [10]) was “inactive”, the Activity (Mus musculus [11]) was “inactive” and the Activity (Mus musculus [12]) was “inactive”. The Activity (Mus musculus [13]) was “Non-toxic”, the Activity (Mus musculus [14]) was “Non-toxic” and the Activity (Mus musculus [15]) was “Non-toxic”. For the same molecule, the Activity (Mus musculus [16]) was “Non-toxic”, the Activity (Mus musculus [17]) was “Non-toxic” and the Activity (Mus musculus [18]) was “Non-toxic”. For the same molecule, the Activity (Rattus norvegicus [19]) was “inactive”, the Activity (Rattus norvegicus [20]) was “inactive” and the Activity (Rattus norvegicus [21]) was “inactive”. The Activity (Rattus norvegicus [22]) was “inactive”, the Activity (Rattus norvegicus [23]) was “Active” and the Activity (Rattus norvegicus [24]) was “Non-toxic”. The Activity (Rattus norvegicus [25]) was “Non-toxic”, the Activity (Rattus norvegicus [26]) was “Non-toxic” and the Activity (Rattus norvegicus [27]) was “Non-toxic”. The Activity (Rattus norvegicus [28]) was “Non-toxic”, the Activity (Mus musculus [29]) was “Active” and the Activity (Mus musculus [30]) was “Active”. The Activity (Mus musculus [31]) was “Active”, the Activity (Mus musculus [32]) was “Active” and the Activity (Mus musculus [33]) was “inactive”. The Activity (Mus musculus [34]) was “Non-toxic”, the Activity (Mus musculus [35]) was “Non-toxic” and the Activity (Mus musculus [36]) was “Non-toxic”. The ED50 (Mus musculus [37]) was 38.2 mg/kg, the Activity (Rattus norvegicus [38]) was “Active” and the Activity (Rattus norvegicus [39]) was “Toxic”. The Activity (Rattus norvegicus [40]) was “Toxic”, the Activity (Rattus norvegicus [41]) was -20 g and the Activity (Rattus norvegicus [42]) was -17.5 g. The Time (Mus musculus [43]) was 0.25 h.

— ChEMBL document CHEMBL1944578, “Synthesis and anticonvulsant activity of novel 2,6-diketopiperazine derivatives. Part 2: Perhydropyrido[1,2-a]pyrazines” (Eur J Med Chem, 2012)
